In ChEMBL document CHEMBL1134637, “Fluorescent tricyclic analogues of acyclovir and ganciclovir. A structure-antiviral activity study” (2001) one finds MIC and MCC data, which are given here for 10 compounds.

Common to all, as to assay type: functional
Assay [1] deals with Human alphaherpesvirus 1. The assay can be described thus: Minimal inhibitory concentration to reduce virus-induced cytopathicity against TK-/TK+ HSV-1 of VMW 837. On the technique in general: Cytopathic effects are the visible damage that an infection or toxin causes in cultured cells.
For assay [2], the system named is Human alphaherpesvirus 2. The assay can be described thus: Minimal inhibitory concentration to reduce virus-induced cytopathicity against G strain of human Herpes Simplex Virus-2.
Assay [3] concerns Vesicular stomatitis virus. The assay can be described thus: Minimal inhibitory concentration to reduce virus-induced cytopathicity against VSV.
Assay [4] has as its system Human alphaherpesvirus 1. The assay can be described thus: Minimal inhibitory concentration to reduce virus-induced cytopathicity against McIntyre strain of human Herpes Simplex Virus-1.
The nature of assay [5]: Minimal cytotoxic concentration (MCC) to cause a microscopically detectable change in normal cell morphology.
For another assay, the system named is Vaccinia virus. The assay can be described thus: Minimal inhibitory concentration to reduce virus-induced cytopathicity against VV. Particulars: Orthopoxvirus vaccinia.
Assay [6] relates to Human alphaherpesvirus 2. The assay can be described thus: Minimal inhibitory concentration to reduce virus-induced cytopathicity against 196 strain of human Herpes Simplex Virus-2.
Assay [7] deals with Human alphaherpesvirus 2. The assay can be described thus: Minimal inhibitory concentration to reduce virus-induced cytopathicity against Lyons strain of human Herpes Simplex Virus-2.
Assay [8] concerns Human alphaherpesvirus 1. The assay can be described thus: Minimal inhibitory concentration to reduce virus-induced cytopathicity against KOS strain of human Herpes Simplex Virus -1.
Assay [9] deals with Human alphaherpesvirus 1. The assay can be described thus: Minimal inhibitory concentration to reduce virus-induced cytopathicity against F strain of human Herpes Simplex Virus-1 (HSV-1). Particulars: Human alphaherpesvirus 1; read-out: MIC.
In assay [10] the test system is Human alphaherpesvirus 1. The assay can be described thus: Minimal inhibitory concentration to reduce virus-induced cytopathicity against Thymidine kinase deficient(TK-) HSV-1 of Acyclovir.
Setting [11] is: Human alphaherpesvirus 2, read-out: MIC.

SMILES strings stand for the structures. ≈ marks a conversion by molar mass, not a printed value.

With `COc1ccc(-c2cn3c(O)c4ncn(COCCO)c4nc3n2)cc1`, the MIC with Human alphaherpesvirus 1 [1] is 21 µg/mL (≈ 59.1 µM); in the assay with Human alphaherpesvirus 2 [2] (setting [11]) it was 0.15 µg/mL (≈ 0.422 µM); in assay [3], more than 40 µg/mL; in the assay with Human alphaherpesvirus 1 [4] it was 0.03 µg/mL (≈ 0.0844 µM); against Vaccinia virus, more than 40 µg/mL; in the assay with Human alphaherpesvirus 2 [6], 0.2 µg/mL (≈ 0.563 µM). The MIC in the assay on Human alphaherpesvirus 2 [7] came to 0.2 µg/mL (≈ 0.563 µM); against Human alphaherpesvirus 1 [8], 0.1 µg/mL (≈ 0.281 µM); in the assay on Human alphaherpesvirus 1 [9], 0.07 µg/mL (≈ 0.197 µM); in the assay with Human alphaherpesvirus 1 [10], 5.9 µg/mL (≈ 16.6 µM). This compound also showed an MCC in [5] of 150 µg/mL.

For the compound `COc1ccc(-c2nc3nc4c(ncn4COCCO)c(O)n3c2-c2ccc(C(c3ccccc3)c3ccccc3)cc2)cc1`, the MIC was more than 16 µg/mL in the assay with Human alphaherpesvirus 1 [1]; more than 16 pug ml-1 in the assay with Human alphaherpesvirus 2 [2]; more than 16 µg/mL in assay [3]; more than 16 µg/mL in the assay on Human alphaherpesvirus 1 [4]; more than 16 µg/mL with Vaccinia virus; more than 16 µg/mL against Human alphaherpesvirus 2 [6]. The MIC against Human alphaherpesvirus 2 [7], in the assay with Human alphaherpesvirus 1 [8], in the assay with Human alphaherpesvirus 1 [9] and against Human alphaherpesvirus 1 [10] was more than 16 µg/mL each time. In addition, in assay [5], the MCC was determined as 80 µg/mL.

Take `Cc1ccc(-c2cn3c(O)c4ncn(COCCO)c4nc3n2)cc1`: the MIC with Human alphaherpesvirus 1 [1] is 82 µg/mL (≈ 242 µM); with Human alphaherpesvirus 2 [2] (setting [11]), 0.93 µg/mL (≈ 2.74 µM); in assay [3], more than 40 µg/mL; against Human alphaherpesvirus 1 [4] it was 0.07 µg/mL (≈ 0.206 µM); with Vaccinia virus it was more than 40 µg/mL; against Human alphaherpesvirus 2 [6], 0.2 µg/mL (≈ 0.589 µM). Also, the MIC worked out at 0.4 µg/mL (≈ 1.18 µM) against Human alphaherpesvirus 2 [7], 0.43 µg/mL (≈ 1.27 µM) in the assay with Human alphaherpesvirus 1 [8], 0.07 µg/mL (≈ 0.206 µM) in the assay on Human alphaherpesvirus 1 [9] and 9.2 µg/mL (≈ 27.1 µM) in the assay with Human alphaherpesvirus 1 [10]. Also, in assay [5], the MCC was 250 µg/mL.

For `Cc1c(-c2ccccc2)nc2nc3c(ncn3COC(CO)CO)c(O)n12`, the MIC with Human alphaherpesvirus 1 [1] was 0.02 µg/mL (≈ 0.0541 µM); with Human alphaherpesvirus 2 [2] (setting [11]), 0.03 µg/mL (≈ 0.0812 µM); in assay [3], more than 240 µg/mL; against Human alphaherpesvirus 1 [4], 0.005 µg/mL (≈ 0.0135 µM); with Vaccinia virus it was more than 400 µg/mL; against Human alphaherpesvirus 2 [6] it was 0.005 µg/mL (≈ 0.0135 µM). The MIC in the assay on Human alphaherpesvirus 2 [7] amounted to 0.02 µg/mL (≈ 0.0541 µM); against Human alphaherpesvirus 1 [8], 0.02 µg/mL (≈ 0.0541 µM); in the assay on Human alphaherpesvirus 1 [9], 0.005 µg/mL (≈ 0.0135 µM); in the assay with Human alphaherpesvirus 1 [10], 3.2 µg/mL (≈ 8.66 µM). In [5], this compound returned an MCC of more than 400 µg/mL.

Regarding `Cc1nc2nc3c(ncn3COCCO)c(O)n2c1C(c1ccccc1)(c1ccccc1)c1ccccc1`, the MIC (against Human alphaherpesvirus 1 [1]; in the assay with Human alphaherpesvirus 2 [2] (setting [11]); in assay [3]; in the assay with Human alphaherpesvirus 1 [4]; against Vaccinia virus; against Human alphaherpesvirus 2 [6]) was more than 16 µg/mL each time. Moreover, the MIC against Human alphaherpesvirus 2 [7], in the assay with Human alphaherpesvirus 1 [8], with Human alphaherpesvirus 1 [9] and in the assay with Human alphaherpesvirus 1 [10] was more than 16 µg/mL in each case. The compound further displayed an MCC in [5] of 80 µg/mL.

As for `OCCOCn1cnc2c(O)n3c(CO)cnc3nc21`, the MIC (against Human alphaherpesvirus 1 [1]; with Human alphaherpesvirus 2 [2] (setting [11]); in assay [3]; in the assay with Human alphaherpesvirus 1 [4]; against Vaccinia virus; in the assay with Human alphaherpesvirus 2 [6]) was more than 3.2 µg/mL in each case. Moreover, the MIC with Human alphaherpesvirus 2 [7], against Human alphaherpesvirus 1 [8], in the assay with Human alphaherpesvirus 1 [9] and in the assay with Human alphaherpesvirus 1 [10] was more than 3.2 µg/mL each time. For the same compound, the MCC in assay [5] was more than 16 µg/mL.

Consider `Cc1ccc(-c2cn3c(O)c4ncn(COC(CO)CO)c4nc3n2)cc1`, for which the MIC is 0.1 µg/mL (≈ 0.271 µM) against Human alphaherpesvirus 1 [1]; 0.13 µg/mL (≈ 0.352 µM) in the assay on Human alphaherpesvirus 2 [2] (setting [11]); more than 16 µg/mL in assay [3]; 0.08 µg/mL (≈ 0.217 µM) in the assay with Human alphaherpesvirus 1 [4]; more than 16 µg/mL against Vaccinia virus; 0.13 µg/mL (≈ 0.352 µM) in the assay on Human alphaherpesvirus 2 [6]. The MIC in the assay with Human alphaherpesvirus 2 [7] was 0.08 µg/mL (≈ 0.217 µM); against Human alphaherpesvirus 1 [8], 0.02 µg/mL (≈ 0.0541 µM); in the assay on Human alphaherpesvirus 1 [9], 0.01 µg/mL (≈ 0.0271 µM); in the assay on Human alphaherpesvirus 1 [10] it was more than 16 µg/mL. The MCC in assay [5] was 80 µg/mL.

As to `OCCOCn1cnc2c(O)n3c(-c4ccccc4)c(-c4ccccc4)nc3nc21`, the MIC against Human alphaherpesvirus 1 [1] is more than 16 µg/mL; in the assay with Human alphaherpesvirus 2 [2] (setting [11]) it was 1.92 µg/mL (≈ 4.78 µM); in assay [3] it was more than 16 µg/mL; with Human alphaherpesvirus 1 [4], 9.6 µg/mL (≈ 23.9 µM); in the assay on Vaccinia virus, more than 16 µg/mL; in the assay with Human alphaherpesvirus 2 [6] it was 9.6 µg/mL (≈ 23.9 µM). In addition, the MIC against Human alphaherpesvirus 2 [7] is 16 µg/mL (≈ 39.9 µM); in the assay on Human alphaherpesvirus 1 [8] it was 1.92 µg/mL (≈ 4.78 µM); with Human alphaherpesvirus 1 [9] it was 9.6 µg/mL (≈ 23.9 µM); with Human alphaherpesvirus 1 [10], more than 16 µg/mL. Further, the MCC in [5] was more than 16 µg/mL.

`OCC(CO)OCn1cnc2c(O)n3cc(-c4ccccc4)nc3nc21`: the MIC is 0.5 µg/mL (≈ 1.41 µM) with Human alphaherpesvirus 1 [1]; 0.3 µg/mL (≈ 0.844 µM) in the assay with Human alphaherpesvirus 2 [2] (setting [11]); more than 175 µg/mL in assay [3]; 0.005 µg/mL (≈ 0.0141 µM) in the assay with Human alphaherpesvirus 1 [4]; more than 90 µg/mL in the assay on Vaccinia virus; 0.02 µg/mL (≈ 0.0563 µM) against Human alphaherpesvirus 2 [6]. Besides, the values for the MIC against Human alphaherpesvirus 2 [7], against Human alphaherpesvirus 1 [8] and in the assay on Human alphaherpesvirus 1 [9] were 0.005 µg/mL (≈ 0.0141 µM), 0.02 µg/mL (≈ 0.0563 µM) and 0.005 µg/mL (≈ 0.0141 µM), respectively. In assay [5], this compound had an MCC of more than 175 µg/mL.

As for `OCCOCn1cnc2c(O)n3cc(-c4ccc5ccccc5c4)nc3nc21`, the MIC is 12.8 µg/mL (≈ 34.1 µM) in the assay with Human alphaherpesvirus 1 [1]; 6.4 µg/mL (≈ 17 µM) in the assay on Human alphaherpesvirus 2 [2] (setting [11]); more than 16 µg/mL in assay [3]; 9.6 µg/mL (≈ 25.6 µM) in the assay with Human alphaherpesvirus 1 [4]; more than 16 µg/mL in the assay with Vaccinia virus; 16 µg/mL (≈ 42.6 µM) in the assay with Human alphaherpesvirus 2 [6]. Besides, the MIC turned out to be 9.6 µg/mL (≈ 25.6 µM) in the assay on Human alphaherpesvirus 2 [7], 5.8 µg/mL (≈ 15.5 µM) with Human alphaherpesvirus 1 [8], 9.6 µg/mL (≈ 25.6 µM) in the assay on Human alphaherpesvirus 1 [9] and 16 µg/mL (≈ 42.6 µM) in the assay on Human alphaherpesvirus 1 [10]. This compound also came in with an MCC in assay [5] of more than 80 µg/mL.
